Reference: ChEMBL document CHEMBL1128924, “Some benzenesulfonamido-substituted valerophenones that are selective antagonists for the 5-HT2C receptor” (Bioorg Med Chem Lett, 1996)

Experiments:
Type in all cases: cell-based
[1] = target: T1, 5-hydroxytryptamine receptor 2C (Homo sapiens, UniProt P28335); experiment: Displacement of [3H]mesulergine from human cloned 5-hydroxytryptamine 2C receptor expressed in CHO-K1 cells
T1 sequence (P28335 whole entry): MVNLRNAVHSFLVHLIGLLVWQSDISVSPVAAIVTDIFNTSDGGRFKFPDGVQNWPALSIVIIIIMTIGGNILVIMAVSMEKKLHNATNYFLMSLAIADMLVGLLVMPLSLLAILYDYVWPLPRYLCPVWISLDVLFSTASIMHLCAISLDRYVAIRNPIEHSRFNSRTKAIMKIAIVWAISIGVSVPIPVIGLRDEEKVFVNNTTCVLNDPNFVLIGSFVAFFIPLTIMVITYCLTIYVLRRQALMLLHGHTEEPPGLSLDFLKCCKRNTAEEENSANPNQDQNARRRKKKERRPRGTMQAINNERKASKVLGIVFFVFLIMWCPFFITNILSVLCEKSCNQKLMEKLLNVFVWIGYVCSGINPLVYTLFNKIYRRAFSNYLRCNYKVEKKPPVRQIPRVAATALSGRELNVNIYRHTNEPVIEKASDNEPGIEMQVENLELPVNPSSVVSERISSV

[2] = target: 5-hydroxytryptamine receptor 2B (Homo sapiens, UniProt P41595); experiment: Displacement of [3H]-5-5HT from human cloned 5-hydroxytryptamine 2B receptor expressed in CHO-K1 cells
Chain of 5-hydroxytryptamine receptor 2B (P41595 whole entry): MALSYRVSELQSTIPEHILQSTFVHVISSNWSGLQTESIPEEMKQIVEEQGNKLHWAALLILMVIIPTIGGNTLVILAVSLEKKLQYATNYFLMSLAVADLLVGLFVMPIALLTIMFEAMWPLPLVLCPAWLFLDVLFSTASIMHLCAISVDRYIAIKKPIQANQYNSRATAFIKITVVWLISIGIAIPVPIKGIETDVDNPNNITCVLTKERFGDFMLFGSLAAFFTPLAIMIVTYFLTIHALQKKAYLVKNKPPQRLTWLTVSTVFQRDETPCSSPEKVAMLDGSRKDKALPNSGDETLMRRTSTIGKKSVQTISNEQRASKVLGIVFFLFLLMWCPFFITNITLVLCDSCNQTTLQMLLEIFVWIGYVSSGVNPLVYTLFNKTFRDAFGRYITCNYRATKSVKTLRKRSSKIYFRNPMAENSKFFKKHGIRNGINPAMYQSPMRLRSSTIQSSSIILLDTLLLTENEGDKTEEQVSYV

[3] = target: T2, 5-hydroxytryptamine receptor 2A (Homo sapiens, UniProt P28223); experiment: Compound was evaluated for displacement of [3H]ketanserin from human cloned 5-hydroxytryptamine 2A receptor in transfected CHO-K1 cells
T2 sequence (P28223 whole entry): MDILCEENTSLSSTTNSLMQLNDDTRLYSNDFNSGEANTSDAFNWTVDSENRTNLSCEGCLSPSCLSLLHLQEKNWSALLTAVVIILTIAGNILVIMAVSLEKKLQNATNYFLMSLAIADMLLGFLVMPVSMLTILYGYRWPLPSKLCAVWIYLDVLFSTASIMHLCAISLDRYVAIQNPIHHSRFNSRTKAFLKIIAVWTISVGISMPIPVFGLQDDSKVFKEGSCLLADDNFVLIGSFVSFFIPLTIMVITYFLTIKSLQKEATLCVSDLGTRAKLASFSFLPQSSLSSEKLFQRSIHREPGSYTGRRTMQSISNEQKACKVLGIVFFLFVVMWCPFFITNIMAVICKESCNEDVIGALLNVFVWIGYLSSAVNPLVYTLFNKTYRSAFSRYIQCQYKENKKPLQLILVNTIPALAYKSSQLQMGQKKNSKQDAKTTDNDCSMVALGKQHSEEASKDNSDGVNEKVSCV

[4] = target: 5-hydroxytryptamine receptor 2A (Rattus norvegicus, UniProt P14842); experiment: Compound was evaluated for displacement of [3H]ketanserin from cloned rat 5-hydroxytryptamine 2A receptor in transfected CHO-K1 cells.
Chain of 5-hydroxytryptamine receptor 2A (Rattus norvegicus, UniProt P14842) (P14842 whole entry, looked up): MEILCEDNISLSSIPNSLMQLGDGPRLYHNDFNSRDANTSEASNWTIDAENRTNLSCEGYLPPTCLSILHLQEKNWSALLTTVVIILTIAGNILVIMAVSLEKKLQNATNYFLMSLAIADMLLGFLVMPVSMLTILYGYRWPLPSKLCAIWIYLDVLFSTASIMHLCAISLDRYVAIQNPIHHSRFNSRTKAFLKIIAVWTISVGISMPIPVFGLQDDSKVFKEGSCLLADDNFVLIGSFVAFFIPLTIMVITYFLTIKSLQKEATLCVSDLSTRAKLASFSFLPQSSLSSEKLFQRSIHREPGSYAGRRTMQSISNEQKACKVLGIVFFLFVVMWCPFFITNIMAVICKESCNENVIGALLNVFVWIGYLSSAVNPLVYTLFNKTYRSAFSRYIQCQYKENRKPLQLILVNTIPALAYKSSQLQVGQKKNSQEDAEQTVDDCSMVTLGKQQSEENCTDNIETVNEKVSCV

[5] = target: T3, 5-hydroxytryptamine receptor 2C (Rattus norvegicus, UniProt P08909); experiment: Compound was evaluated for displacement of [3H]mesulergine from cloned rat 5-hydroxytryptamine 2C receptor in transfected CHO-K1 cells.
T3 sequence (P08909 whole entry): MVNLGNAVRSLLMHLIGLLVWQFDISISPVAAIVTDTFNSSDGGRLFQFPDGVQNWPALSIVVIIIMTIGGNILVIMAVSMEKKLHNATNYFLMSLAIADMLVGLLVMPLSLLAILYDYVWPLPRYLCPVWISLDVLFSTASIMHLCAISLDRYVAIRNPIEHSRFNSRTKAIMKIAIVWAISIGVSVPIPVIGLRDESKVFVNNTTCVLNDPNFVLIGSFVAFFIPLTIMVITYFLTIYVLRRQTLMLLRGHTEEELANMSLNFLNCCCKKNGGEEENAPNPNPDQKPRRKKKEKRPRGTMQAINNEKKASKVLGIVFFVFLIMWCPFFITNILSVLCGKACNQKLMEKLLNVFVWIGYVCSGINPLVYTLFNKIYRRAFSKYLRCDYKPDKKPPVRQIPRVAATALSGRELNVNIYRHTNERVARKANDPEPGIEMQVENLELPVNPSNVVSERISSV

[6] = target: T2, 5-hydroxytryptamine receptor 2A; experiment: Displacement of [3H]-ketanserin from human cloned 5-hydroxytryptamine 2A receptor expressed in CHO-K1 cells.

Structure (SMILES)	Ki [1]	Ki [2]	Ki [3]	Ki [4]	Ki [5]	Ki [6]
COc1ccc(Cl)cc1C(=O)CCCCN1CCC2(CC1)NC(=O)NC2=O	3.98 nM	50.1 nM	12.6 nM			
COc1ccc(NS(=O)(=O)c2ccc(Cl)cc2)cc1C(=O)CCCCN1CCC2(CC1)NC(=O)NC2=O				7.94 nM	2 nM	
COc1ccc(OC)c(C(=O)CCCCN2CCC3(CC2)NC(=O)NC3=O)c1	3.16 nM	126 nM	20 nM			
COc1cc(OC)c(C(=O)CCCCN2CCC3(CC2)NC(=O)NC3=O)cc1NS(=O)(=O)c1ccccc1	31.6 nM	631 nM				3160 nM
COc1cc(OC)c(C(=O)CCCCN2CCC3(CC2)NC(=O)NC3=O)cc1N				126 nM	39.8 nM	
COc1ccc(NS(=O)(=O)c2ccccc2)cc1C(=O)CCCCN1CCC2(CC1)NC(=O)NC2=O				20 nM	6.31 nM	
COc1cc(OC)c(C(=O)CCCCN2CCC3(CC2)NC(=O)NC3=O)cc1NS(=O)(=O)c1ccc(NC(C)=O)cc1	39.8 nM	316 nM				> 10000 nM
COc1cc(OC)c(C(=O)CCCCN2CCC3(CC2)NC(=O)NC3=O)cc1Cl				5.01 nM	0.631 nM	
COc1cc(OC)c(C(=O)CCCCN2CCC3(CC2)NC(=O)NC3=O)cc1NS(=O)(=O)c1ccc(C)cc1	10 nM	316 nM				2510 nM
COc1ccc(-c2ccccc2)cc1C(=O)CCCCN1CCC2(CC1)NC(=O)NC2=O	0.2 nM	10 nM	1 nM			
COc1cc(OC)c(C(=O)CCCCN2CCC3(CC2)NC(=O)NC3=O)cc1NS(=O)(=O)c1ccc(OC(F)(F)F)cc1	1.58 nM	398 nM				1000 nM
COc1cc(Cl)c(Cl)cc1C(=O)CCCCN1CCC2(CC1)NC(=O)NC2=O	0.251 nM	6.31 nM	6.31 nM			
COc1cc(OC)c(C(=O)CCCCN2CCC3(CC2)NC(=O)NC3=O)cc1NS(=O)(=O)c1ccc(C(C)C)cc1	1.58 nM	1260 nM				1260 nM
COc1cc(OC)c(C(=O)CCCCN2CCC3(CC2)NC(=O)NC3=O)cc1NS(=O)(=O)c1ccc(Cl)cc1	5.01 nM	79.4 nM				794 nM
COc1cc(OC)c(C(=O)CCCCN2CCC3(CC2)NC(=O)NC3=O)cc1NS(=O)(=O)c1ccc(C(C)=O)cc1	39.8 nM	251 nM				> 10000 nM
COc1cc(OC)c(C(=O)CCCCN2CCC3(CC2)NC(=O)NC3=O)cc1NS(=O)(=O)c1ccccc1Cl	398 nM	398 nM				> 10000 nM
COc1cc(OC)c(C(=O)CCCCN2CCC3(CC2)NC(=O)NC3=O)cc1NS(=O)(=O)c1ccc(C#N)cc1	7.94 nM	398 nM				794 nM
COc1ccc(S(=O)(=O)Nc2cc(C(=O)CCCCN3CCC4(CC3)NC(=O)NC4=O)c(OC)cc2OC)cc1	20 nM	1260 nM				2000 nM
O=C(CCCN1CCC2(CC1)C(=O)NCN2c1ccccc1)c1ccc(F)cc1 [SPIPERONE]	631 nM	1260 nM				
COc1cc(OC)c(C(=O)CCCCN2CCC3(CC2)NC(=O)NC3=O)cc1NS(=O)(=O)c1ccc(S(N)(=O)=O)cc1	79.4 nM	3160 nM				> 10000 nM
COc1cc(OC)c(-c2ccccc2)cc1C(=O)CCCCN1CCC2(CC1)NC(=O)NC2=O	10 nM	100 nM	398 nM			
COc1cc(OC)c(C(=O)CCCCN2CCC3(CC2)NC(=O)NC3=O)cc1NS(=O)(=O)c1ccc(F)cc1	10 nM	126 nM				> 10000 nM
COc1cc(OC)c(C(=O)CCCCN2CCC3(CC2)NC(=O)NC3=O)cc1NS(=O)(=O)c1cccc(Cl)c1	50.1 nM	200 nM				2000 nM
COc1ccc(Oc2ccccc2)cc1C(=O)CCCCN1CCC2(CC1)NC(=O)NC2=O				7.94 nM	3.16 nM	
CN1C[C@@H](NS(=O)(=O)N(C)C)C[C@@H]2c3cccc4c3c(cn4C)C[C@H]21 [MESULERGINE]		2 nM				20 nM
COc1cc(Cl)ccc1C(=O)CCCCN1CCC2(CC1)NC(=O)NC2=O	6.31 nM	200 nM	126 nM			
COc1cc(OC)c(C(=O)CCCCN2CCC3(CC2)NC(=O)NC3=O)cc1NS(=O)(=O)c1ccc(C(F)(F)F)cc1 [RS-102,221]	2 nM	316 nM				631 nM
COc1ccccc1C(=O)CCCCN1CCC2(CC1)NC(=O)NC2=O	> 10000 nM	> 10000 nM	> 10000 nM			
COc1cc(OC)c(C(=O)CCCCN2CCC3(CC2)NC(=O)NC3=O)cc1NS(=O)(=O)c1cccc(C(F)(F)F)c1				794 nM	100 nM	
